As a reminder, the cell viability is the share of living cells, or the viability signal relative to a control. A higher cell viability goes with less harm to the cells.

Data set [1] can be described thus: UV-Vis absorption of scytoneman-like compounds. Type of data set: physicochemical. The text has this:
The compounds were isolated from cyanobacteria collected from a small saltern pond located just behind the primary dune in Mrizika, Morocco (GPS coordinates: 32.955807, −8.779638). […] To explore the chemodiversity of the mat, the biomass was freeze-dried (650 g, d.w.) and extracted using a dichloromethane/methanol mixture (2:1). The crude extract was then fractionated by vacuum liquid chromatography using a solvent gradient with increasing polarity from 100% hexanes to 100% ethyl acetate and then to 100% MeOH. […] The filtered solution was subfractionated through flash chromatography using a gradient of hexanes, ethyl acetate to methanol.

Data set [2] has as its system Staphylococcus aureus (ATCC 29213). Kind of data set: Antimicrobial assay, disc diffusion method. The format is cell-based. The following applies: final concentration of 15 μg mL^−1; S. aureus ATCC 29213. As for the experimental part: Kanamycin and ampicillin (15 μg) were used as positive controls.
The pure compounds were also tested in antimicrobial assays using the disc diffusion method. […] Apart from its sunscreen function, the previously known scytonemins have been associated with anticancer and antioxidative activity, but no antimicrobial activity has ever been reported for any of the scytoneman family of compounds until now.
Background: A growth-free zone around the sample is the usual read-out of agar diffusion tests.

For data set [3], the system named is SY-SH5Y (neuroblastoma cell line). Kind of data set: Cytotoxicity tests using the MTT assay. Type of data set: cell-based. The following applies: final concentration 10 μg mL^−1. As for the experimental part:
1% DMSO (v/v) was used as negative control and 20% DMSO (v/v) as a positive control;
The pure compounds were also tested in cytotoxicity assays using the MTT assay.

For the next data set, the system named is cyanobacteria. The following applies: cited from earlier work.
[4] abbreviates: Table 1, identification by LC-HRMS analysis.

With 3,3′-dihydroxyscytonemin [585.2061], the Main absorbance regions result is “UVB” in data set [1] (setting [4]) and “UVB” in data set [1] (Table 2, UV-Vis spectra). The substance further displayed a Max wavelength in data set [1] (maximum absorption wavelengths, UV-Vis spectra) of 293 nm.
Take “3′-hydroxy-3-methoxyscytonemin [595.1864]”: the Main absorbance regions entry in data set [1] (setting [4]) is reported as “Green/blue”; in data set [1] (Table 2, UV-Vis spectra), “Green/blue”.
Regarding 3′-hydroxyscytonemin, the antimicrobial activity result in data set [2] is given as “presented antimicrobial activity”. In addition, the cell viability in data set [3] (24 h of exposure) is recorded as 37.8%; in data set [3] (48 h of exposure), 18.3%. For the same substance, the Main absorbance regions entry was “UVA” in data set [1] (setting [4]) and “UVA” in data set [1] (Table 2, UV-Vis spectra).
Consider scytonemin, for which, in the data set on cyanobacteria, the “reduction of the UV-A radiation that penetrates the cells” value is listed as “up to 90%”.

The values above are taken from US12233145B2, “Ultra-violet absorbing compounds” (CIIMAR—CENTRO DE INVESTIGACAO MARINHA E AMBIENTAL, priority 2018, dated 2025).
